Patent US6613538B2, “Detection of HLA-G” (priority 1999, dated 2003)

Key:
Type in all cases: cell-based, human
[1] = test system: JEG-3 choriocarcinoma cells; assay: HLA-G protein by ELISA after progesterone treatment; conditions: progesterone doses from 10 ng/ml, 24 hours
Description: (§1) Methods. Purified cytotrophoblasts were prepared from first trimester placental tissue by standard techniques. JEG-3 choriocarcinoma cells were cultured in RPMI-1640 medium containing 10% FCS for three days. The cells were then treated with various doses of progesterone for 24 hours. Cell lysates and conditioned media were prepared for ELISA and total RNA was extracted for PCR. The ELISA was conducted according to the invention, using the 3C/G4 and 2C/C8 anti-HLA-G monoclonal antibodies. HLA-G protein, purified by immunoaffinity columns from first trimester placental tissue, was used as standard. The sensitivity of the ELISA was 20 ng/ml and assay variation was less than 10%. Quantitative RT-PCR was performed by using specific primers for HLA-G. Results were assessed for statistical significance using one-way analysis of variance.

[2] = test system: cytotrophoblasts (placenta cell culture); assay: as above; conditions: progesterone 100 ng and 1000 ng/ml, 24 hours
Description: as §1

[3] = test system: JEG-3 choriocarcinoma cells; assay: HLA-G mRNA by quantitative RT-PCR after progesterone treatment
Description: as §1

cytotrophoblast cells = assay: as above
Description: as §1

SMILES: CC(=O)[C@H]1CC[C@H]2[C@@H]3CCC4=CC(=O)CC[C@]4(C)[C@H]3CC[C@]12C [progesterone]
- HLA-G concentration in JEG-3 cell lysate [1]: significant increase
- HLA-G concentration in JEG-3 conditioned medium [1]: significant increase
- HLA-G protein in placenta cell culture [2]: significantly increased
- HLA-G mRNA levels in JEG-3 cells ([3]; after progesterone treatment, RT-PCR): increase of HLA-G mRNA levels
- HLA-G mRNA levels at 1000 ng/ml versus 10 and 100 ng/ml ([3]; progesterone 1000 ng/ml, cell type not specified in the sentence (JEG-3 and cytotrophoblast cells tested)): significantly higher HLA-G mRNA levels
- HLA-G mRNA levels in cytotrophoblast cells (cytotrophoblast cells): increase of HLA-G mRNA levels
